Assay results as given in ChEMBL document CHEMBL1201862, “PubChem BioAssay data set” (2004).
“And” between values parts separate entries of the source, which are not always exact repeats. Equal entries are not always repeated. The source made the active and inactive calls.

Key:
[1] = molecular target: T1, Dual specificity protein phosphatase 6 (Rattus norvegicus, UniProt Q64346); assay type: functional;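 note: confirmatory in vitro dose-response testing of MKP-3 inhibition; recombinant His-tagged MKP-3 made in E. coli BL21 with OMFP substrate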
[2] = molecular target: Tyrosine-protein phosphatase non-receptor type 7 (Homo sapiens, UniProt P35236); assay: redox-active compounds inhibiting HePTP phosphatase – biochemical, fluorescence, mechanism study (AID 2068); assay type: functional
CAAX prenyl protease 1 = CAAX prenyl protease 1 (Saccharomyces cerevisiae S288c, UniProt P47154); assay: yeast CAAX protease Ste24 inhibition – biochemical, S. cerevisiae, plate reader, cherry-pick, dose response (AID 488815)
Trypsin = Trypsin (Sus scrofa, UniProt P00761); assay: trypsin protease activity blockade – biochemical, quenched peptide fluorescence, cherry-pick, selectivity assay for Rce1 protease inhibitor project, dose response (AID 488789)
Cytochrome P450 2D6 = Cytochrome P450 2D6 (Homo sapiens, UniProt P10635);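 note: CYP2D6 member of a cytochrome P450 panel assay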
Cytochrome P450 1A2 = molecular target: T2, Cytochrome P450 1A2 (Homo sapiens, UniProt P05177);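 note: PubChem cytochrome P450 panel assay, CYP1A2 panel member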
T2 sequence (P05177 whole entry): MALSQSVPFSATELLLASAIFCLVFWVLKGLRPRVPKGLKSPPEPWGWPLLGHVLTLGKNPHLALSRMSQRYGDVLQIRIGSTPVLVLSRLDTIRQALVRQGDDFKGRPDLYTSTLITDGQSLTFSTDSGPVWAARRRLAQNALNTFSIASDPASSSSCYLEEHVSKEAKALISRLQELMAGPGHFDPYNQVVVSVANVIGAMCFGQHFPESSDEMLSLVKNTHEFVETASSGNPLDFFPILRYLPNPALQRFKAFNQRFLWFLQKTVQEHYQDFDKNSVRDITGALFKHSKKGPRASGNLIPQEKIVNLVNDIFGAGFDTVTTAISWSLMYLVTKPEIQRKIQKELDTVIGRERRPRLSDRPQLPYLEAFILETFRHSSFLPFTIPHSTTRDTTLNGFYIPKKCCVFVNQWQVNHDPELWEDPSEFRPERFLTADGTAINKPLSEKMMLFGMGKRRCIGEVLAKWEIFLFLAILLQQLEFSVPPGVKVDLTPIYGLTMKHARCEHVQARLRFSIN

[3] = molecular target: T3, Heat shock factor protein 1 (Mus musculus, UniProt P38532); assay: decrease of HSF1-responsive luciferase luminescence – cell-based, NIH3T3, dose retest, confirmation (AID 2382); assay type: functional;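 note: NIH3T3 fibroblasts with HSF1-driven luciferase reporter stressed by proteasome inhibitor MG132; luminescence from HSF1-driven luciferase expression after 8 hours of MG132 stress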
T3 sequence (P38532 whole entry): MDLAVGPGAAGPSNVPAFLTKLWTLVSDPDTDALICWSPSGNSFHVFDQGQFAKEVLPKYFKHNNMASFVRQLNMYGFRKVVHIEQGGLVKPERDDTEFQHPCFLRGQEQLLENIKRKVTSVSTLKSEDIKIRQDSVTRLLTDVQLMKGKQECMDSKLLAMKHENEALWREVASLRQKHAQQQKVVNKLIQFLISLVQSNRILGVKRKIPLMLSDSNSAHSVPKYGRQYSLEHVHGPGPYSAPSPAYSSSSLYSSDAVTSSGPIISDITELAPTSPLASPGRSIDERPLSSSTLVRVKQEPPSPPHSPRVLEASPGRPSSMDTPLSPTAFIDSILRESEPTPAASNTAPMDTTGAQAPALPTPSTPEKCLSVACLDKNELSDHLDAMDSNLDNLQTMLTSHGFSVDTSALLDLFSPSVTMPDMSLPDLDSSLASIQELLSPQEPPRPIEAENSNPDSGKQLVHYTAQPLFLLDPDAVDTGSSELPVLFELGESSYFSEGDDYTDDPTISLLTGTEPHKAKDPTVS

[4] = molecular target: UDP-galactopyranose mutase (Mycobacterium tuberculosis, UniProt P9WIQ1); assay: Inhibitors of Mycobacterium tuberculosis UDP-galactopyranose mutase (UGM) enzyme Measured in Biochemical System Using Plate Reader - 2105-02_Inhibitor_Dose_CherryPick_Activity. [Related pubchem assays (depositor defined):AID504439]
ORF 73 = ORF 73 (Human herpesvirus 8, UniProt O40947); assay: KSHV LANA DNA-binding disruption – biochemical, fluorescence polarization, cherry-picked samples, dose response (AID 504725); design: species or system Human gammaherpesvirus 8;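 note: fluorescence polarization of a labeled DNA duplex reporting LANA DNA binding; potency is for inhibitors that block LANA binding to the DNA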
[5] = molecular target: T4, Zinc finger protein mex-5 (Caenorhabditis elegans, UniProt Q9XUB2); assay: potency of MEX-5 RNA-binding blockers – biochemical, C. elegans, fluorescence polarization, dose response (AID 1960)
T4 sequence (Q9XUB2 whole entry): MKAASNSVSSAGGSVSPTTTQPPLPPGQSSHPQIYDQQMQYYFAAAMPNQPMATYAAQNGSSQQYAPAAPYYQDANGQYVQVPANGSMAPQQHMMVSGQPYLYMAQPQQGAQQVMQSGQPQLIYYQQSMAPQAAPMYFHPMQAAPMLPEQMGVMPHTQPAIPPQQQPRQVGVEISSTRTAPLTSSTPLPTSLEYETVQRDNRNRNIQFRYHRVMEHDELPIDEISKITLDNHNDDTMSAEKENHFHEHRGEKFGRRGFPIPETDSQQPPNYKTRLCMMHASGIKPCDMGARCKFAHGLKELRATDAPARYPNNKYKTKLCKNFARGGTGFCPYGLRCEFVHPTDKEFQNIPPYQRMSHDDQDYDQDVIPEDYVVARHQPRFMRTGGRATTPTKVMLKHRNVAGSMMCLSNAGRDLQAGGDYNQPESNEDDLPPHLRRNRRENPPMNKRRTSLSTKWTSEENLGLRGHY

Fibrinogen beta chain [6] = molecular target: T5, Fibrinogen beta chain (Homo sapiens, UniProt P02675); assay: Fluorescence polarization-based biochemical high throughput dose response assay to identify inhibitors that disrupt the binding of a cyclic peptide (Tn7) to the fibrin proteolytic product D-Dimer and fragment E complex [DD(E )].
T5 sequence (P02675 whole entry): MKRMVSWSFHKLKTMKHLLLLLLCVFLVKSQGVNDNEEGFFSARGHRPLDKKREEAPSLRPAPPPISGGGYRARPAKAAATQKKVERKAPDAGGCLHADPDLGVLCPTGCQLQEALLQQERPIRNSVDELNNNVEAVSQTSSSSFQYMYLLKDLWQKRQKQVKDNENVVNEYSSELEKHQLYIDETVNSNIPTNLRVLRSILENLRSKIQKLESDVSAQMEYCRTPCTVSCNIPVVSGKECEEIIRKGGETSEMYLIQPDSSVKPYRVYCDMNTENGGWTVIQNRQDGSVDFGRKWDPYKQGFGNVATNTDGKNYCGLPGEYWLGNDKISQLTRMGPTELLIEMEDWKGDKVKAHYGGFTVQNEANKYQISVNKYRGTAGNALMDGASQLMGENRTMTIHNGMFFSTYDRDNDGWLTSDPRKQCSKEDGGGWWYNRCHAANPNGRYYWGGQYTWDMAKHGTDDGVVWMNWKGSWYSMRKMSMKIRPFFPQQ

Fibrinogen beta chain [7] = molecular target: T5, Fibrinogen beta chain; assay: Fluorescence polarization-based biochemical high throughput dose response assay to identify inhibitors that disrupt the binding of a cyclic peptide (Tn6) to the fibrin proteolytic product D-Dimer and fragment E complex [DD(E )].
[8] = molecular target: T6, RNA-binding protein pos-1 (Caenorhabditis elegans, UniProt G5EF15); assay: disruptors of C. elegans POS-1 RNA interaction – biochemical, fluorescence polarization, dose response (AID 1964);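 note: purified POS-1 fused to maltose binding protein made in E. coli; potency of compounds blocking POS-1 binding to fluorescent RNA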
T6 sequence (G5EF15 whole entry): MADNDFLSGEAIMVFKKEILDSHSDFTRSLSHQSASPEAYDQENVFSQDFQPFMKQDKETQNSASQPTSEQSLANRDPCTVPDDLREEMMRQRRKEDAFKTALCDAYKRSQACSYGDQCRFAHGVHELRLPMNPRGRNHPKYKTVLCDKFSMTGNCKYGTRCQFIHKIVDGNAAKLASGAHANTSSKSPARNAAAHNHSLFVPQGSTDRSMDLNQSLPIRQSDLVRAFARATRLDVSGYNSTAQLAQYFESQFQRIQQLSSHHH

Protein S100-A4 = Protein S100-A4 (Homo sapiens, UniProt P26447); assay: human S100A4 peptide interaction inhibition curves – biochemical, fluorescence polarization, cherry-picked hits, dose response (AID 687001); assay type: functional
Keap1/Nrf2 = Keap1/Nrf2 (Homo sapiens, UniProt Q14145); assay: disruptors of Keap1 binding to Nrf2 peptide – biochemical, fluorescence polarization, cherry-picked samples, dose response (AID 588683)
[9] = molecular target: E3 ubiquitin-protein ligase XIAP (Homo sapiens, UniProt P98170); assay: Counter Screen using XIAP-Bir3 for Chemical Antagonists of Bir1/2 domains of IAP-family anti-apoptotic proteins. [Related pubchem assays (depositor defined):AID1018, AID1449, AID1514, AID1638, AID1749, AID1750, AID488957, AID488963]
[10] = molecular target: Eukaryotic translation initiation factor 4E (Mus musculus, UniProt P63073); assay: blockers of eIF4G binding by eIF4E – biochemical, TR-FRET, dose response (AID 855); assay type: functional;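 note: potency for disrupting eIF4E binding to eIF4GI seen as loss of FRET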
Cysteine protease ATG4B = molecular target: T7, Cysteine protease ATG4B (Homo sapiens, UniProt Q9Y4P1); assay type: functional;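 note: Fluorescence-based dose-response confirmation assay measuring inhibition of ATG4B activity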
T7 sequence (Q9Y4P1 whole entry): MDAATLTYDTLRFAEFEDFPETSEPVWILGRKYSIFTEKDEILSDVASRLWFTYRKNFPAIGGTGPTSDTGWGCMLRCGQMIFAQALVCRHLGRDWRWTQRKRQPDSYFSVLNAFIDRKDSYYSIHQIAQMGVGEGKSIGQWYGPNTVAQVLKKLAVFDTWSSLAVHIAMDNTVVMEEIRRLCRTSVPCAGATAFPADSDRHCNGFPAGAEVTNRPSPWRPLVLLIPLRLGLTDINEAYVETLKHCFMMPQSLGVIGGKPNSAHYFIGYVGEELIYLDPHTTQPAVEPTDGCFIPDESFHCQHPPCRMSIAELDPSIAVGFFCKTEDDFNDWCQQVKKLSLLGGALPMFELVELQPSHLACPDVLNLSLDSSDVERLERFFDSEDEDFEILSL

[11] = molecular target: T8, Induced myeloid leukemia cell differentiation protein Mcl-1 (Homo sapiens, UniProt Q07820); assay: blockers of MCL1 binding to BIM peptide – biochemical, fluorescence polarization, BIM-BH3 peptide, 1536-well, dose response (AID 2217)
[12] = molecular target: T9, Voltage-gated N-type calcium channel alpha-1B subunit/Amyloid beta A4 precursor protein-binding family A member 1 (Homo sapiens, UniProt Q00975+Q02410); assay type: protein assay
[13] = molecular target: T8, Induced myeloid leukemia cell differentiation protein Mcl-1; assay type: functional
[14] = molecular target: T10, Dual specificity protein phosphatase 3 (Homo sapiens, UniProt P51452); assay: VHR1 phosphatase inhibitors, primary screen, biochemical, absorbance, uHTS (AID 1654)
Bcl-2-like protein 1 = Bcl-2-like protein 1 (Homo sapiens, UniProt Q07817); assay: blockers of BCLXL peptide binding – biochemical, fluorescence polarization, 1536-well, selectivity assay for MCL1 inhibitor project, dose response (AID 2218)
[15] = molecular target: T9, Voltage-gated N-type calcium channel alpha-1B subunit/Amyloid beta A4 precursor protein-binding family A member 1; assay type: protein assay; remark: listed apart in the source
Phospholipase A2 = Phospholipase A2 (Homo sapiens, UniProt P04054); assay type: functional;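 note: confirmatory dose-response counterscreen on phospholipase A2, testing hits that came from an ultra-high-throughput screen for ATG4B inhibitors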
[16] = molecular target: T10, Dual specificity protein phosphatase 3; assay: VHR1 phosphatase inhibitors, biochemical (AID 1878)
NS3 = NS3 (Hepatitis C virus, UniProt A3EZJ3); assay: PubChem AID 2173; design: species or system Hepacivirus hominis
[17] = antiviral protection against BTV-induced cell death – arbovirus, BSR cells, confirmation (AID 1250); assay type: functional;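 note: protection from viral cytopathic effect measured as cell viability by ATP luminescence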
[18] = molecular target: T1, Dual specificity protein phosphatase 6; assay: inhibition of rat DUSP6 enzyme activity – biochemical, in vitro, primary screen (AID 425)

T1 sequence (Q64346 whole entry): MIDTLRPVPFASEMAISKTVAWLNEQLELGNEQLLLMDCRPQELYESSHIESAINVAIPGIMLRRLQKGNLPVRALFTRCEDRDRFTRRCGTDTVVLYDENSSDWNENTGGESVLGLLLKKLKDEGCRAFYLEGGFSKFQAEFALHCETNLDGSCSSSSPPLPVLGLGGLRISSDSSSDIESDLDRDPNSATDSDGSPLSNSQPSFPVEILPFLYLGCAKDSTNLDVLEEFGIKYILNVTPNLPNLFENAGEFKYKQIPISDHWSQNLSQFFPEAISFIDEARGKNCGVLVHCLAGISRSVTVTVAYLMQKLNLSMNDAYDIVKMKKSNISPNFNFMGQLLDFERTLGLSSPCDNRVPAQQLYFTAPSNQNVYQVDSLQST
T9 sequence (Q00975 whole entry): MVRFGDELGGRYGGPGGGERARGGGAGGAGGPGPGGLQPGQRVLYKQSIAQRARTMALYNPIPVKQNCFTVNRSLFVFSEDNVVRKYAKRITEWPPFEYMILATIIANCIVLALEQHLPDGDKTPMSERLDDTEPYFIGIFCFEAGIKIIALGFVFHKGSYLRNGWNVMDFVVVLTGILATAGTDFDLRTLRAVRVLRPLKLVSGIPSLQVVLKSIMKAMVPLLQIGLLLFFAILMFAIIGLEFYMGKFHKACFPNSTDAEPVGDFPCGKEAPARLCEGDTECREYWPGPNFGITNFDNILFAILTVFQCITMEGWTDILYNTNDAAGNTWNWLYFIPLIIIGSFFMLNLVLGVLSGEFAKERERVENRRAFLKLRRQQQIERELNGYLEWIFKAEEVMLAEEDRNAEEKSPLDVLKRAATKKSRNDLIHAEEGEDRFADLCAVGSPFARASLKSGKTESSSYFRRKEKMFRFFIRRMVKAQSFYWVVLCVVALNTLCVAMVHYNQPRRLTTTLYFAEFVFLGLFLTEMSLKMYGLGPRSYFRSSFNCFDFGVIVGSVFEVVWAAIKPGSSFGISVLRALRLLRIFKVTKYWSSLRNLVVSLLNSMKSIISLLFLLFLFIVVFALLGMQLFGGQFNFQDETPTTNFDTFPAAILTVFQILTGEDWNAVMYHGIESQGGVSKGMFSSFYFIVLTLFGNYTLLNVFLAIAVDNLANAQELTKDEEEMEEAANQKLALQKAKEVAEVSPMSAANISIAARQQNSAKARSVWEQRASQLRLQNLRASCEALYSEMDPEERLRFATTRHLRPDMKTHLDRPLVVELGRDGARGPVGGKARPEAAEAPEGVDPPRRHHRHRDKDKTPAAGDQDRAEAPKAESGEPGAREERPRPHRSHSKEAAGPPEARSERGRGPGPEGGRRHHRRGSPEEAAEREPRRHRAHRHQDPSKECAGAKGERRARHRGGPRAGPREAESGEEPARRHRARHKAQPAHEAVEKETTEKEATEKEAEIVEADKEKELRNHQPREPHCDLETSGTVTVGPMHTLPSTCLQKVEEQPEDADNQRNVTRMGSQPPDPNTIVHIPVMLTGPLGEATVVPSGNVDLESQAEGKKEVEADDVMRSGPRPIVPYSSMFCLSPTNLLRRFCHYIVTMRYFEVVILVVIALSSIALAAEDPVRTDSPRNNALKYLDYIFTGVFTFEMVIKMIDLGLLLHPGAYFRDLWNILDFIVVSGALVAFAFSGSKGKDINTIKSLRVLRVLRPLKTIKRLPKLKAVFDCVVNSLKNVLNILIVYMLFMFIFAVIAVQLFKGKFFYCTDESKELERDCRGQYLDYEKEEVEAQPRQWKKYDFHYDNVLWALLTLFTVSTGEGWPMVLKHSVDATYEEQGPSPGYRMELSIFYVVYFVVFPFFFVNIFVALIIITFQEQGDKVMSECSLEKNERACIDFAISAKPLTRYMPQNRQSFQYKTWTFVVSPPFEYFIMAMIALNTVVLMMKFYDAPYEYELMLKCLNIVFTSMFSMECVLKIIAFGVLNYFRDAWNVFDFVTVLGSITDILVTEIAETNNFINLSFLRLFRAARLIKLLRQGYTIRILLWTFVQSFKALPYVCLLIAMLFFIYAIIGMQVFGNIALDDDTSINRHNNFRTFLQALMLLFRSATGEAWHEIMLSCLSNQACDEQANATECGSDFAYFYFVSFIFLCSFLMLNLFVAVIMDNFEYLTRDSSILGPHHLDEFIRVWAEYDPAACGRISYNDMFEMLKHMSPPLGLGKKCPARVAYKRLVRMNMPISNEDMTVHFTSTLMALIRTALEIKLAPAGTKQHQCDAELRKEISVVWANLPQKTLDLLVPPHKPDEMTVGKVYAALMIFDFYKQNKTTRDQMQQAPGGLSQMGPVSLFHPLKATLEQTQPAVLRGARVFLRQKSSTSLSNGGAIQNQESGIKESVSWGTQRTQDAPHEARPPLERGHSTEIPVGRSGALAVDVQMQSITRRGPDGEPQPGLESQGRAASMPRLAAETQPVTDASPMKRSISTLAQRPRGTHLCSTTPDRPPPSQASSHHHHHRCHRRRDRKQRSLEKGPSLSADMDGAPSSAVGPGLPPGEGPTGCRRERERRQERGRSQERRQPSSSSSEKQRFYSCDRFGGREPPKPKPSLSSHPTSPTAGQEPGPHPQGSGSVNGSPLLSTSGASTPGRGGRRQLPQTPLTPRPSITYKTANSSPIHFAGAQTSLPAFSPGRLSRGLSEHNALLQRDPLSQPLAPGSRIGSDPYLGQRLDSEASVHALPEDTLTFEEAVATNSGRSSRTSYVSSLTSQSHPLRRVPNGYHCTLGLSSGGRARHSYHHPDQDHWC
T9 sequence (Q02410 whole entry): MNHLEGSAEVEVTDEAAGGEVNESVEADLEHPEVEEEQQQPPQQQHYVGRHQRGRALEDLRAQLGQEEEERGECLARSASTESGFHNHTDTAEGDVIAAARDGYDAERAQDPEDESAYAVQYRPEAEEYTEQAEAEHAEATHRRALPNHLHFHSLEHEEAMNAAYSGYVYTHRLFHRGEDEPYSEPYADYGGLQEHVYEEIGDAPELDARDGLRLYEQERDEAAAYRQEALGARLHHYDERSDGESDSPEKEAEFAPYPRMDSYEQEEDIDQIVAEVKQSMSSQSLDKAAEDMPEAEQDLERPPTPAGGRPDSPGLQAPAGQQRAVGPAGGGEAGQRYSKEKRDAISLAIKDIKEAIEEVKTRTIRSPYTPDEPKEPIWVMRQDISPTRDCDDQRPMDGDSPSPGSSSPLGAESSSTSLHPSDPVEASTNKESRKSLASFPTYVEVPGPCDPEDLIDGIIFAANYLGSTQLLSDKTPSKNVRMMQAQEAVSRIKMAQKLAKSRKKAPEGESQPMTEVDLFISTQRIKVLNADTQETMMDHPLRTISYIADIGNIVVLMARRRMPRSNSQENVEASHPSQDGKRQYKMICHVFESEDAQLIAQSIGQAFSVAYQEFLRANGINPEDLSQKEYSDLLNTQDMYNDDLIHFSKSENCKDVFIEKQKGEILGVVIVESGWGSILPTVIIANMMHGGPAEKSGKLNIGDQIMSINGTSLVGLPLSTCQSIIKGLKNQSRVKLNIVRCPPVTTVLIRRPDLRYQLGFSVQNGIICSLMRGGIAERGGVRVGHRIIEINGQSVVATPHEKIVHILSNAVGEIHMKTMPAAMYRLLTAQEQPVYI
Sequence of Cytochrome P450 2D6 (P10635 whole entry): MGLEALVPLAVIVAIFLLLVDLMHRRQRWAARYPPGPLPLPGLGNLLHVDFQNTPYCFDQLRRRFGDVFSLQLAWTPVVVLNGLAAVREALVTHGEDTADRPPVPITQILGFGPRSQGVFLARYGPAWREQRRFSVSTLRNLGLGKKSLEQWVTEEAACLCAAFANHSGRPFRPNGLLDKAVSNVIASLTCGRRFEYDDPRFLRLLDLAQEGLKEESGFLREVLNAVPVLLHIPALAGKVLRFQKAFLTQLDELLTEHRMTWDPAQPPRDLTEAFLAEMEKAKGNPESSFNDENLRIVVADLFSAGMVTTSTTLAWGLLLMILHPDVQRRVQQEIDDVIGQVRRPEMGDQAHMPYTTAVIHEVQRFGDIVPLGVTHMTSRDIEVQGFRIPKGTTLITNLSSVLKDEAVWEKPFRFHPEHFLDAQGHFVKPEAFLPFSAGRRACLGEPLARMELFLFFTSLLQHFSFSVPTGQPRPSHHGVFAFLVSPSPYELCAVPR
T8 sequence (Q07820 whole entry): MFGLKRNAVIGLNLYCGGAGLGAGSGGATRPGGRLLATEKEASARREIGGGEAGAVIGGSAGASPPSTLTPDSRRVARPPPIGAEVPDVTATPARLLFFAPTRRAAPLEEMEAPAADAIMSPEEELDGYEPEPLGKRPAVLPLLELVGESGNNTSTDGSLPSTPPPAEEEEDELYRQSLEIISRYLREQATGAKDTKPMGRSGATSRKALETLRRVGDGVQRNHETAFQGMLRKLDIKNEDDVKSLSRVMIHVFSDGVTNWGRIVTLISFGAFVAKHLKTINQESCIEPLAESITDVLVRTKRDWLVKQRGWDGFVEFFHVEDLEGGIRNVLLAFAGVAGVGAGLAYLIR
T10 sequence (P51452 whole entry): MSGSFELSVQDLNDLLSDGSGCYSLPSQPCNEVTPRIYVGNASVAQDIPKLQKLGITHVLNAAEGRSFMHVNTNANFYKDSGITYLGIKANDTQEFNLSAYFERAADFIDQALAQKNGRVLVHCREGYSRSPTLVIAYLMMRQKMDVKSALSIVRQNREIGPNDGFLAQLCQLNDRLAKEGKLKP
Sequence of Tyrosine-protein phosphatase non-receptor type 7 (P35236 whole entry): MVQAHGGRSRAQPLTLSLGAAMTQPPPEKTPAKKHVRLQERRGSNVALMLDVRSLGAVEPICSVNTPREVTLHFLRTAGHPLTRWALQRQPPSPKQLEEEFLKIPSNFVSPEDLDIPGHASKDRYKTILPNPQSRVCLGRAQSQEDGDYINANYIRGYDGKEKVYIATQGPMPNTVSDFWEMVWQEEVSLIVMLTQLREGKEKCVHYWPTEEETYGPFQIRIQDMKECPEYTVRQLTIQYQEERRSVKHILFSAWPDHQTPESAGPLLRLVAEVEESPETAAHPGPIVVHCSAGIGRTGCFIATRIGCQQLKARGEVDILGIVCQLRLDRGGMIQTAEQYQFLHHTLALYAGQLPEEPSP
Sequence of Protein S100-A4 (P26447 whole entry): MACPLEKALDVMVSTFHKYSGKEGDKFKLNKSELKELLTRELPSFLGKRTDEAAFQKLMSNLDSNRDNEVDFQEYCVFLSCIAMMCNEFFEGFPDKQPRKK

Structure (SMILES): COc1cc(C(=S)NCc2ccc(F)c(C)c2)ccc1O
- IC50 [1]: > 100 µM (inactive)
- IC50 [2]: 4.33 µM (active)

Structure (SMILES): CCCCNC(=O)C(CC)Sc1nc2sc(C(=O)OC)c(C)c2c(=O)n1N (centres undefined)
- AC50 (CAAX prenyl protease 1): 8.14 µM (active)
- AC50 (Trypsin): 0.985 µM (active)

Structure (SMILES): Cc1ccc(N(CC2=NCCN2)c2cccc(O)c2)cc1 [PHENTOLAMINE]
- AC50 (Cytochrome P450 2D6): 794 nM (active) and 1.12 µM (active)
- AC50 (Cytochrome P450 1A2): inactive
- EC50 [3]: > 195 µM (not active)

Structure (SMILES): CN1C(=O)NC(c2ccccc2[N+](=O)[O-])C2=C1CCCC2=O (centres undefined)
- AC50 [4]: 54.3 µM (active)
- AC50 (ORF 73): 24.9 µM (active)
- EC50 [5]: 7.58 µM (inconclusive)
- IC50 (Fibrinogen beta chain [6]): > 83.3 µM (inactive)
- IC50 (Fibrinogen beta chain [7]): 11.3 µM (inactive)
- EC50 [8]: 8.8 µM (active)
- AC50 (Protein S100-A4): 1.41 µM (active)
- AC50 (Keap1/Nrf2): 44.5 µM (active)
- IC50 [9]: > 20 µM (inactive)

Structure (SMILES): COc1ccc(-n2cccc2/C=C2\C(=N)N3N=C(c4ccco4)SC3=NC2=O)cc1
- IC50 [10]: 50 µM (inactive)
- IC50 (Cysteine protease ATG4B): 2.73 µM (active)
- IC50 [11]: 4.93 µM (active)
- IC50 [12]: > 50 µM (inactive)
- IC50 [13]: 19.3 µM (active)
- IC50 [14]: 6.65 µM (active)
- IC50 (Bcl-2-like protein 1): > 109 µM (not active)
- IC50 [15]: 14.1 µM (active)
- IC50 (Phospholipase A2): 1.09 µM (active)
- IC50 [16]: 2.27 µM (active)
- IC50 (NS3): 7.79 µM (active)
- IC50 [17]: 33.2 µM (active)
- IC50 [18]: 9.04 µM (active)
